Patent publication US20260315464A1, “COMPOSITIONS, METHODS, AND SYSTEMS FOR MODULATING SPLICING OF MSH3” (REVIR THERAPEUTICS, INC., priority 2023, published 2026)

Tested on: MSH3
Assay: QPCR assay for levels of MSH3 upon compound treatment in HEK293T or AD293 cells (fold-change of MSH3 transcript, EC50 of MSH3 downregulation; total MSH3 exons 13/14, exons 20/21; Table 8)
Assay type: cell-based
Details: Homo sapiens, fold-change of the MSH3 transcript, normalized to GAPDH; for mrna remaining at 1 µM: 1 μM compound; for mrna remaining at 10 µM: 10 μM compound
Method in brief: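 HEK293T or AD293 cells were treated at 1 μM and […]; RNA-to-cDNA qPCR used TaqMan assays for total MSH3 (exons 13/14, exons 20/21) and poison-exon junctions exon 13/PE14A and exon 20/PE21A. Transcript levels were normalized to GAPDH.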

Row | SMILES | mrna remaining at 1 µM | mrna remaining at 10 µM
1 | [2H]C([2H])([2H])n1cc(-c2cnc3c(c2)C(=O)N(c2ccc(N(C)C4CC(C)(C)NC(C)(C)C4)nn2)C3)cn1 [Compound 161, 6-(6-(methyl(2,2,6,6-tetramethylpiperidin-4-yl)amino)pyridazin-3-yl)-3-(1-(methyl-d3)-1H-pyrazol-4-yl)-6,7-dihydro-5H-pyrrolo[3,4-b]pyridin-5-one] | 96% | 70%
2 | Cc1nn(C)nc1-c1ncc2c(n1)C(=O)N(c1ccc(O[C@H]3C[C@]4(C)CC[C@](C)(C3)N4)nn1)C2 [Compound 592, 2-(2,5-dimethyl-2H-1,2,3-triazol-4-yl)-6-(6-(((1R,3s,5S)-1,5-dimethyl-8-azabicyclo[3.2.1]octan-3-yl)oxy)pyridazin-3-yl)-5,6-dihydro-7H-pyrrolo[3,4-d]pyrimidin-7-one] | 90% | 54%
3 | Cc1nn(C)cc1-c1cc2c(cn1)CN(c1ccc(O[C@@H]3C[C@@]4(C)CC[C@](C)(N4)[C@@H]3F)nn1)C2=O [Compound 79, 6-(1,3-dimethyl-1H-pyrazol-4-yl)-2-(6-(((1S,2S,3R,5R)-2-fluoro-1,5-dimethyl-8-azabicyclo[3.2.1]octan-3-yl)oxy)pyridazin-3-yl)-2,3-dihydro-1H-pyrrolo[3,4-c]pyridin-1-one] | 92% | 31%
4 | Cc1nn(C)cc1-c1cnc2c(c1)C(=O)N(c1ccc(OC3CC(C)(C)NC4(CCC4)C3)nn1)C2 (centres unmarked) [Compound 597, 3-(1,3-dimethyl-1H-pyrazol-4-yl)-6-(6-((6,6-dimethyl-5-azaspiro[3.5]nonan-8-yl)oxy)pyridazin-3-yl)-6,7-dihydro-5H-pyrrolo[3,4-b]pyridin-5-one] | 98% | 29%
5 | Cc1nn(C)nc1-c1cc2c(nn1)CN(c1ccc(O[C@H]3C[C@]4(C)CC[C@](C)(C3)N4)nn1)C2=O [Compound 596, 3-(2,5-dimethyl-2H-1,2,3-triazol-4-yl)-6-(6-(((1R,3s,5S)-1,5-dimethyl-8-azabicyclo[3.2.1]octan-3-yl)oxy)pyridazin-3-yl)-6,7-dihydro-5H-pyrrolo[3,4-c]pyridazin-5-one] | 88% | 106%
6 | Cn1nc(Cl)c(-c2cc(F)c3c(c2)C(=O)N(c2ccc(N4CC5(CNC5)C4)nn2)C3)n1 [Compound 670, 2-(6-(2,6-diazaspiro[3.3]heptan-2-yl)pyridazin-3-yl)-6-(5-chloro-2-methyl-2H-1,2,3-triazol-4-yl)-4-fluoroisoindolin-1-one] | 92% | 44%
7 | CN(C)C1CCN(c2ccc(N3Cc4c(F)cc(-c5nn(C)nc5Cl)cc4C3=O)nn2)CC1 [Compound 667, 6-(5-chloro-2-methyl-2H-1,2,3-triazol-4-yl)-2-(6-(4-(dimethylamino)piperidin-1-yl)pyridazin-3-yl)-4-fluoroisoindolin-1-one] | 92% | 71%
8 | Cc1nn(C)nc1-c1cc(F)c2c(c1)C(=O)N(c1ccc(N3CCN[C@H](C(C)C)C3)nn1)C2 [Compound 640, (R)-6-(2,5-dimethyl-2H-1,2,3-triazol-4-yl)-4-fluoro-2-(6-(3-isopropylpiperazin-1-yl)pyridazin-3-yl)isoindolin-1-one] | 99% | 25%
9 | CN(c1ccc(N2Cc3ncc(-c4nnn(C)n4)cc3C2=O)nn1)[C@H]1C[C@]2(C)CC[C@](C)(C1)N2 [Compound 612, 6-(6-(((1R,3s,5S)-1,5-dimethyl-8-azabicyclo[3.2.1]octan-3-yl)(methyl)amino)pyridazin-3-yl)-3-(2-methyl-2H-tetrazol-5-yl)-6,7-dihydro-5H-pyrrolo[3,4-b]pyridin-5-one] | 109% | 15%
10 | Cc1nn(C)cc1-c1cc(F)c2c(c1)C(=O)N(c1ccc(OC3CC(C)(C)NC4(CC4)C3)nn1)C2 (centres unmarked) [Compound 284, 6-(1,3-dimethyl-1H-pyrazol-4-yl)-2-(6-((5,5-dimethyl-4-azaspiro[2.5]octan-7-yl)oxy)pyridazin-3-yl)-4-fluoroisoindolin-1-one] | 91% | 73%
11 | CN(c1ccc(N2Cc3c(F)cc(-c4cnn(CC(C)(C)O)c4)cc3C2=O)nn1)[C@H]1C[C@]2(C)CC[C@](C)(C1)N2 [Compound 632, 2-(6-(((1R,3s,5S)-1,5-dimethyl-8-azabicyclo[3.2.1]octan-3-yl)(methyl)amino)pyridazin-3-yl)-4-fluoro-6-(1-(2-hydroxy-2-methylpropyl)-1H-pyrazol-4-yl)isoindolin-1-one] | 72% | 57%
12 | COc1cc(-c2nn(C)nc2Cl)cc2c1CN(c1ccc(O[C@H]3C[C@]4(C)CC[C@](C)(C3)N4)nn1)C2=O [Compound 684, 6-(5-chloro-2-methyl-2H-1,2,3-triazol-4-yl)-2-(6-(((1R,3s,5S)-1,5-dimethyl-8-azabicyclo[3.2.1]octan-3-yl)oxy)pyridazin-3-yl)-4-methoxyisoindolin-1-one] | 133% | 24%
13 | Cn1cc(-c2cc3c(cn2)CN(c2ccc(O[C@H]4C[C@]5(C)CC[C@](C)(C4)N5)nn2)C3=O)c(C(F)(F)F)n1 [Compound 74, 2-(6-(((1R,3s,5S)-1,5-dimethyl-8-azabicyclo[3.2.1]octan-3-yl)oxy)pyridazin-3-yl)-6-(1-methyl-3-(trifluoromethyl)-1H-pyrazol-4-yl)-2,3-dihydro-1H-pyrrolo[3,4-c]pyridin-1-one] | 96% | 33%
14 | Cc1nn(C)nc1-c1cc(F)c2c(c1)C(=O)N(c1ccc(N3CCC4CCC(C3)N4)nn1)C2 (centres unmarked) [Compound 651, 2-(6-(3,9-diazabicyclo[4.2.1]nonan-3-yl)pyridazin-3-yl)-6-(2,5-dimethyl-2H-1,2,3-triazol-4-yl)-4-fluoroisoindolin-1-one] | 96% | 60%
15 | Cn1nc(Cl)c(-c2cnc3c(c2)C(=O)N(c2ccc(OC4CC(C)(C)NC(C)(C)C4)nn2)C3)n1 [Compound 493, 3-(5-chloro-2-methyl-2H-1,2,3-triazol-4-yl)-6-(6-((2,2,6,6-tetramethylpiperidin-4-yl)oxy)pyridazin-3-yl)-6,7-dihydro-5H-pyrrolo[3,4-b]pyridin-5-one] | 57% | 13%
16 | Cc1nn(C)nc1-c1cc(F)c2c(c1)C(=O)N(c1ccc(N3C[C@@H](C)NC[C@@H]3C)nn1)C2 [Compound 674, 6-(2,5-dimethyl-2H-1,2,3-triazol-4-yl)-2-(6-((2S,5R)-2,5-dimethylpiperazin-1-yl)pyridazin-3-yl)-4-fluoroisoindolin-1-one] | 98% | 49%
17 | Cn1ncc(-c2cnc3c(n2)C(=O)N(c2ccc(O[C@H]4C[C@]5(C)CC[C@](C)(C4)N5)nn2)C3)n1 [Compound 498, 6-(6-(((1R,3s,5S)-1,5-dimethyl-8-azabicyclo[3.2.1]octan-3-yl)oxy)pyridazin-3-yl)-3-(2-methyl-2H-1,2,3-triazol-4-yl)-6,7-dihydro-5H-pyrrolo[3,4-b]pyrazin-5-one] | 67% | 52%
18 | Cc1nn(C)cc1-c1ccc2c(c1)C(=O)N(c1ccc(O[C@H]3C[C@]4(C)CC[C@](C)(C3)N4)nn1)C2 [Compound 416, 6-(1,3-dimethyl-1H-pyrazol-4-yl)-2-(6-(((1R,3s,5S)-1,5-dimethyl-8-azabicyclo[3.2.1]octan-3-yl)oxy)pyridazin-3-yl)isoindolin-1-one] | 37% | 
19 | Cc1nc(C)c(-c2cnc3c(c2)C(=O)N(c2cnc(N(C)C4CC(C)(C)NC(C)(C)C4)nn2)C3)s1 [Compound 195, 3-(2,4-dimethylthiazol-5-yl)-6-(3-(methyl(2,2,6,6-tetramethylpiperidin-4-yl)amino)-1,2,4-triazin-6-yl)-6,7-dihydro-5H-pyrrolo[3,4-b]pyridin-5-one] | 59% | 42%
20 | CN(c1ccc(N2Cc3ncc(-c4nn(C)nc4Cl)nc3C2=O)nn1)C1CC(C)(C)NC2(CCC2)C1 (centres unmarked) [Compound 626, 3-(5-chloro-2-methyl-2H-1,2,3-triazol-4-yl)-6-(6-((6,6-dimethyl-5-azaspiro[3.5]nonan-8-yl)(methyl)amino)pyridazin-3-yl)-6,7-dihydro-5H-pyrrolo[3,4-b]pyrazin-5-one] | 98% | 28%
21 | Cc1nn(C)nc1-c1cnc2c(c1)C(=O)N(c1ccc(N3C[C@@H](C)NC[C@@H]3C)nn1)C2 [Compound 613, 3-(2,5-dimethyl-2H-1,2,3-triazol-4-yl)-6-(6-((2S,5R)-2,5-dimethylpiperazin-1-yl)pyridazin-3-yl)-6,7-dihydro-5H-pyrrolo[3,4-b]pyridin-5-one] | 130% | 91%
22 | Cn1nc(Cl)c(-c2cc(F)c3c(c2)C(=O)N(c2ccc(N4CC[C@@H](NC(C)(C)C)C4)nn2)C3)n1 [Compound 656, (R)-2-(6-(3-(tert-butylamino)pyrrolidin-1-yl)pyridazin-3-yl)-6-(5-chloro-2-methyl-2H-1,2,3-triazol-4-yl)-4-fluoroisoindolin-1-one] | 70% | 43%
23 | Cc1nn(C)cc1-c1cc2c(nn1)CN(c1ccc(O[C@H]3C[C@]4(C)CC[C@](C)(C3)N4)nn1)C2=O [Compound 595, 3-(1,3-dimethyl-1H-pyrazol-4-yl)-6-(6-(((1R,3s,5S)-1,5-dimethyl-8-azabicyclo[3.2.1]octan-3-yl)oxy)pyridazin-3-yl)-6,7-dihydro-5H-pyrrolo[3,4-c]pyridazin-5-one] | 91% | 18%
24 | Cc1nn(C)cc1-c1cnc2c(c1)C(=O)N(c1ccc(OC3CCC(C)(C)NC(C)(C)C3)nn1)C2 (centres unmarked) [Compound 479, 3-(1,3-dimethyl-1H-pyrazol-4-yl)-6-(6-((2,2,7,7-tetramethylazepan-4-yl)oxy)pyridazin-3-yl)-6,7-dihydro-5H-pyrrolo[3,4-b]pyridin-5-one] | 119% | 56%
